Experiment in all cases: inhibition of tumour cell growth, NCI panel, 48 h
The test system of experiment [1] is A498.
Experiment [2] deals with CCRF-CEM.
In experiment [3] the test system is COLO 205.
For experiment [4], the system named is HCT-15.
Experiment [5] has as its system HOP-92.
Experiment [6] concerns HT-29.
Experiment [7] deals with Hs-578T.
Experiment [8] deals with K562.
In experiment [9] the test system is KM12.
The subject of experiment [10] is LOX IMVI.
For experiment [11], the system named is M14.
The subject of experiment [12] is NCI-H226.
Experiment [13] concerns PC-3.
The subject of experiment [14] is RXF 393.
For experiment [15], the system named is SF-268.
Experiment [16] relates to SK-MEL-28.
The subject of experiment [17] is SN12C.
The subject of experiment [18] is SNB-19.
The test system of experiment [19] is SK-OV-3.
For experiment [20], the system named is SR.

Each structure is given as a SMILES string. Values joined by “and” are separate entries in the source; they are usually repeats but may differ in a detail not shown here. Equal entries are not always repeated.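 Five compound concentrations were applied to cells in 96-well plates for 48 hours; endpoints were derived by simple linear interpolation of the resulting dose-response curve. At the GI50, growth is halved.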 Active and inactive are the calls of the source. Rule as the data show it: active = GI50 up to about 1.1 µM and inactive = higher.

With `CCNC(=O)c1cc(Cl)ccc1NC(=O)C12CC3CC(CC(C3)C1)C2`, the GI50 in experiment [1] was > 100 µM (inactive); in experiment [2], 23.2 µM (inactive); in [3], 31 µM (inactive); in experiment [4], 32.7 µM; in experiment [5], 30.4 µM (inactive); in [6] it was 18 µM (inactive). Besides, the GI50 is > 100 µM (inactive) in experiment [7]; 28.2 µM (inactive) in [8]; 27.2 µM (inactive) in experiment [9]; 42 µM (inactive) in experiment [10]; 31.8 µM (inactive) in [11]; > 100 µM (inactive) in experiment [12]. Moreover, the GI50 in experiment [13] was 32.1 µM (inactive); in experiment [14], 19.2 µM (inactive); in experiment [15], > 100 µM (inactive); in experiment [16], 35.8 µM (inactive); in experiment [17], 32.7 µM (inactive); in experiment [18], 43.6 µM (inactive).

As to `CC1(C)OC2OC(C(COS(=O)(=O)C(F)(F)F)N=[N+]=[N-])C(OC(=O)c3ccccc3)C2O1` (stereo not given), the GI50 is > 100 µM (inactive) in experiment [1]; > 100 µM (inactive) in experiment [2]; > 100 µM (inactive) in experiment [3]; over 100 µM in experiment [4]; > 100 µM (inactive) in experiment [5]; > 100 µM (inactive) in experiment [6]. The GI50 in experiment [7], in experiment [8], in experiment [9], in [10], in [11] and in experiment [12] was > 100 µM (inactive) each time. For the same compound, the GI50 in experiment [13] was > 100 µM (inactive); in [14], > 100 µM (inactive) and 59.3 µM (inactive); in experiment [15] it was > 100 µM (inactive); in experiment [16], > 100 µM (inactive); in experiment [19] it was > 100 µM (inactive); in experiment [17] it was > 100 µM (inactive). The GI50 in [18] is > 100 µM (inactive).

As for `CCOP(=O)(/C=C/n1cnc2c(=O)n(C(C)=O)c(N)nc21)OCC`, the GI50 was > 100 µM (inactive) in experiment [1]; > 100 µM (inactive) in [2]; > 100 µM (inactive) in experiment [3]; over 100 µM in [4]; > 100 µM (inactive) in experiment [6]; > 100 µM (inactive) in [7]. The GI50 in [8] was > 100 µM (inactive); in experiment [9], > 100 µM (inactive); in experiment [10], > 100 µM (inactive); in experiment [11] it was > 100 µM (inactive); in experiment [12], 70.3 µM (inactive); in [13], > 100 µM (inactive). Further, the GI50 in [14], in experiment [15], in experiment [16], in [19], in [17] and in experiment [18] was > 100 µM (inactive) throughout.

With `Nc1nc(Cl)cc(NCC2(CO)CCC(Cc3ccccc3)C2)n1` (stereo not given), the GI50 in experiment [1] is 12.6 µM (inactive); in experiment [2], 6.68 µM (inactive); in experiment [3], 12.8 µM (inactive); in experiment [4], 27.4 µM; in experiment [5], 20.6 µM (inactive); in experiment [6], 19.1 µM (inactive). The GI50 was 25.4 µM (inactive) in experiment [7]; 1.21 µM (inactive) in experiment [8]; 20.2 µM (inactive) in experiment [9]; 8.59 µM (inactive) in experiment [10]; 18.7 µM (inactive) in experiment [11]; 22.3 µM (inactive) in [12]. The GI50 is 26.7 µM (inactive) in [13]; 28.5 µM (inactive) in experiment [14]; 30.1 µM (inactive) in experiment [15]; 37.5 µM (inactive) in experiment [16]; 36 µM (inactive) in [19]; 52.7 µM (inactive) in [17]. For the same compound, the GI50 in [18] is 33.5 µM (inactive).

`COc1ccc2nc3c4c(nccc4c2c1)-c1ncccc1C3=O`: the GI50 is 0.0916 µM (active) in [1]; 0.818 µM (active) in [2]; 0.604 µM (active) in experiment [3]; 0.005 µM in [4]; 0.092 µM (active) in experiment [5]; 0.499 µM (active) in [6]. The GI50 is 0.016 µM (active) in experiment [8]; 0.0748 µM (active) in [9]; 0.00982 µM (active) in [10]; 0.0118 µM (active) in experiment [11]; 0.0622 µM (active) in experiment [12]; 0.0317 µM (active) in [13]. Also, the GI50 in experiment [14] is 0.119 µM (active); in [15], 0.0826 µM (active); in [16], 0.109 µM (active); in experiment [19] it was 0.0586 µM (active); in [17] it was 0.0508 µM (active); in experiment [18] it was 0.0656 µM (active). Besides, the GI50 in experiment [20] was 0.00542 µM (active).

For `NCCCN(CCCCN(CCCN)Cc1ccc2ccccc2c1)Cc1ccc2ccccc2c1`, the GI50 is 2.1 µM (inactive) in experiment [1]; 27 µM (inactive) in [2]; 2.55 µM (inactive) in [3]; 3.58 µM in experiment [4]; 2.83 µM (inactive) in experiment [5]; 1.7 µM (inactive) in experiment [6]. The GI50 is 1.63 µM (inactive) in [7]; 3.51 µM (inactive) in [8]; 1.86 µM (inactive) in experiment [9]; 2.1 µM (inactive) in experiment [10]; 1.97 µM (inactive) in experiment [11]; 1.8 µM (inactive) in experiment [12]. In addition, the GI50 is 1.95 µM (inactive) in experiment [14]; 1.29 µM (inactive) in experiment [15]; 1.92 µM (inactive) in [16]; 1.86 µM (inactive) in experiment [19]; 1.57 µM (inactive) in experiment [17]; 1.53 µM (inactive) in experiment [18].

As for `COC(=O)C1=C(O)CCCC(C2CCCCC(=O)C2C(=O)OC)=C1` (stereo not given), the GI50 was 18.4 µM (inactive) in [1]; 20.8 µM (inactive) in [2]; 83.4 µM (inactive) in [3]; 87.5 µM in [4]; 28.5 µM (inactive) in experiment [5]; > 100 µM (inactive) in experiment [6]. The GI50 in [8] was 64.3 µM (inactive); in [9], 94.6 µM (inactive); in [10] it was 25.6 µM (inactive); in [11], > 100 µM (inactive); in experiment [12] it was 27.9 µM (inactive); in experiment [13], 63.4 µM (inactive). The GI50 was 90.2 µM (inactive) in [14]; > 100 µM (inactive) in [16]; 76.7 µM (inactive) in experiment [19]; 38.2 µM (inactive) in experiment [17]; 42.1 µM (inactive) in experiment [18]; 24.7 µM (inactive) in experiment [20].

Turning to `CCOc1ccc(NC(=S)N/C=C(/C(C)=O)C(=O)Nc2ccccc2C)cc1`, the GI50 in experiment [3] was > 100 µM (inactive); in experiment [4], over 100 µM; in experiment [6], > 100 µM (inactive); in experiment [7] it was > 100 µM (inactive); in experiment [8], > 100 µM (inactive); in experiment [9], > 100 µM (inactive). For the same compound, the GI50 in experiment [10], in [11], in [12], in [13], in experiment [14] and in experiment [15] was > 100 µM (inactive) each time. Moreover, the GI50 in experiment [19], in experiment [17] and in experiment [18] was > 100 µM (inactive) throughout.

Consider `COc1ccc(S(=O)(=O)c2nnc(S(=O)(=O)Cc3ccccc3)s2)cc1`, for which the GI50 in experiment [1] is 18.6 µM (inactive); in [3] it was 13 µM (inactive); in [4], 25.7 µM; in experiment [6], 17.9 µM (inactive); in experiment [7], 21.3 µM (inactive); in experiment [8], 5.92 µM (inactive). For the same compound, the GI50 in experiment [9] was 29.6 µM (inactive); in experiment [11] it was 17.5 µM (inactive); in [13], 21.1 µM (inactive); in experiment [14] it was 16.2 µM (inactive); in [15], 33.7 µM (inactive); in experiment [16], 20.5 µM (inactive). In addition, the GI50 is 22.5 µM (inactive) in [19], 23.7 µM (inactive) in experiment [17] and 20.8 µM (inactive) in experiment [18].

`CN1CCN(c2ccc3nc(C4=C(O)C(=O)[C@@H]5C(=C4O)N=C(CO)N5C)[nH]c3n2)CC1`: the GI50 in experiment [2] is 97.5 µM (inactive); in experiment [3], 80.5 µM (inactive); in experiment [4], over 100 µM; in experiment [5] it was 55 µM (inactive); in [6] it was > 100 µM (inactive); in experiment [7], > 100 µM (inactive). Besides, the GI50 was 24 µM (inactive) in experiment [8]; > 100 µM (inactive) in [9]; 73.1 µM (inactive) in experiment [10]; > 100 µM (inactive) in experiment [11]; > 100 µM (inactive) in experiment [12]; 69.8 µM (inactive) in [13]. Moreover, the GI50 in [14] is > 100 µM (inactive); in experiment [15] it was 74.3 µM (inactive); in experiment [16], > 100 µM (inactive); in [19], > 100 µM (inactive); in [17] it was > 100 µM (inactive); in experiment [18] it was 57.5 µM (inactive).

In the case of `CCCCN(CCCC)CC(C(=O)Nc1ccc([N+](=O)[O-])cc1[N+](=O)[O-])/C(C)=N\NC(=O)C[N+](C)(C)C` (stereo not given), the GI50 in experiment [1] is 52.7 µM (inactive); in experiment [2], 41.8 µM (inactive); in experiment [3] it was 35.7 µM (inactive); in [4], 46.8 µM; in experiment [5], 33 µM (inactive); in [6], 75.9 µM (inactive). Moreover, the GI50 in experiment [8] was 28.8 µM (inactive); in [9] it was > 100 µM (inactive); in experiment [10] it was 33.3 µM (inactive); in [11], > 100 µM (inactive); in [12], > 100 µM (inactive); in experiment [14] it was 92.7 µM (inactive). Besides, the GI50 in experiment [15] is > 100 µM (inactive); in [16], > 100 µM (inactive); in experiment [19], > 100 µM (inactive); in [17], > 100 µM (inactive); in experiment [18], > 100 µM (inactive); in experiment [20], 25.1 µM (inactive).

The values above are taken from ChEMBL document CHEMBL1201862, “PubChem BioAssay data set” (2004).
